Data from patent US20160212997A1, “AGRICULTURAL CHEMICALS” (REDAG CROP PROTECTION LTD, priority 2013, published 2016).
Read-outs that look alike come from different tables or passages of the source.

Experiments:
Type in all cases: in vivo
[1] = test system: aphids, Myzus persicae; test: Potter tower spray on aphids, knockdown and mortality; conditions: Aphids; for pest or weed control at 0.00625 % strength / pest or weed control at 0.0125 % strength / pest or weed control at 0.025 % strength / pest or weed control at 0.05 % strength / pest or weed control at 0.1 % strength: Myzus persicae, read-out: Average of % corrected affected; for pest or weed control at 0.00625 % strength: 0.00625 % w/v; for pest or weed control at 0.0125 % strength: 0.0125 % w/v; for pest or weed control at 0.025 % strength: 0.025 % w/v; for pest or weed control at 0.05 % strength: 0.05 % w/v; for pest or weed control at 0.1 % strength: 0.1 % w/v
Summary of the method: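 Ten aphids (mixed sex and age) per Petri dish on a leaf disc were sprayed by Potter tower with compounds at five concentrations in DMSO. Knockdown and mortality were scored at 24 and 48 hours, five replicates per treatment, alongside carrier-only and untreated controls.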

[2] = test system: red spider mites, Tetranychus urticae; test: Potter tower spray on red spider mites, knockdown and mortality; conditions: for percentage control: Spider mites
From the text: The compounds were screened for insecticidal efficacy against aphids, Myzus persicae, Cabbage moth, Mamestra brassicae, diamond black moths, Plutella xylostella, red spider mites, Tetranychus urticae, whitefly, Trialeurodes vaporariorum, in terms of knockdown and mortality.
Myzus persicae, Cabbage moth, Mamestra brassicae, diamond back moths, Plutella xylostella, red spider mites, Tetranychus urticae, whitefly, Trialeurodes vaporariorum, were obtained from specified laboratory cultures. Mixed sex and age aphids and mites, moth larvae and whitefly scale infested leaves were used in the experiments. Environmental conditions were closely monitored and recorded and were within the optimal range of the target species.
The compounds were screened at a range of five concentrations, diluted in DMSO. Some of the compounds were screened against aphids, whitefly and red spider mites and other compounds were screened against cabbage moth, and diamond black moths. A carrier only and an untreated control will also be conducted. Treatments were applied directly onto the insects within Petri dishes, using a potter tower.
Twenty mites and ten aphids, scales and moth larvae were placed within a Petri dish, lined with a suitable leaf disc on a damp cotton wool pad. Scales were already on leaves. The Petri dishes were then sprayed using a potter tower. The number of knocked down and anthropods were assessed at 24 and 48 hours post treatment. Five replicates were be performed for each treatment, for each species.

[3] = test system: caterpillars, a mixture of Mamestra brassicae and Lacanobia oleracea; test: Potter tower spray on caterpillars, knockdown and mortality; conditions: Caterpillars, read-out: Average of % corrected affected; for pest or weed control at 0.00625 % strength: 0.00625 % w/v; for pest or weed control at 0.0125 % strength: 0.0125 % w/v; for pest or weed control at 0.025 % strength: 0.025 % w/v; for pest or weed control at 0.05 % strength: 0.05 % w/v; for pest or weed control at 0.1 % strength: 0.1 % w/v
Summary of the method: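 Mixed Mamestra brassicae and Lacanobia oleracea larvae (ten per dish, on leaf disc over damp cotton wool) sprayed directly with a Potter tower at five concentrations in DMSO containing 1% v/v Tween 20, alongside carrier-only and untreated controls. Knockdown and mortality scored at 24 and 48 h post treatment; five replicates per treatment.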

[4] = 24 h, 24 hours post application
[5] = 48 h, 48 hours post application

CCOC(=O)CN(Cc1ccc(Cl)nc1)C1=CC(=O)OC1 [Compound 3, Ethyl 2-[(6-chloro-3-pyridyl)methyl-(5-oxo-2H-furan-3-yl)amino]acetate]
percentage control ([1]; 25 g/ha, 24 h): E (A percentage control of from 1 to 19 is indicated by the letter E)
percentage control ([1]; 25 g/ha, 48 h): D (A percentage control of from 20 to 39 is indicated by the letter D)
percentage control ([1]; 50 g/ha, 24 h): 0%
percentage control ([1]; 50 g/ha, 48 h): C (A percentage control of from 40 to 59 is indicated by the letter C)
percentage control ([1]; 100 g/ha, 24 h): E (A percentage control of from 1 to 19 is indicated by the letter E)
percentage control ([1]; 100 g/ha, 48 h): B (A percentage control of from 60 to 79 is indicated by the letter B)
percentage control ([1]; 200 g/ha, 24 h): E (A percentage control of from 1 to 19 is indicated by the letter E)
percentage control ([1]; 200 g/ha, 48 h): C (A percentage control of from 40 to 59 is indicated by the letter C)
percentage control ([1]; 400 g/ha, 24 h): E (A percentage control of from 1 to 19 is indicated by the letter E)
percentage control ([1]; 400 g/ha, 48 h): B (A percentage control of from 60 to 79 is indicated by the letter B)
pest or weed control at 0.00625 % strength [1, 4]: 1 to 19%
pest or weed control at 0.0125 % strength [1, 4]: 1 to 19%
pest or weed control at 0.025 % strength [1, 4]: 1 to 19%
pest or weed control at 0.05 % strength [1, 4]: 1 to 19%
pest or weed control at 0.1 % strength [1, 4]: 1 to 19%
pest or weed control at 0.00625 % strength [1, 5]: 1 to 19%
pest or weed control at 0.0125 % strength [1, 5]: 1 to 19%
pest or weed control at 0.025 % strength [1, 5]: 20 to 39%
pest or weed control at 0.05 % strength [1, 5]: 20 to 39%
pest or weed control at 0.1 % strength [1, 5]: 20 to 39%
percentage control ([2]; 25 g/ha, 24 h): B (A percentage control of from 60 to 79 is indicated by the letter B)
percentage control ([2]; 25 g/ha, 48 h): C (A percentage control of from 40 to 59 is indicated by the letter C)
percentage control ([2]; 50 g/ha, 24 h): D (A percentage control of from 20 to 39 is indicated by the letter D)
percentage control ([2]; 50 g/ha, 48 h): D (A percentage control of from 20 to 39 is indicated by the letter D)
percentage control ([2]; 100 g/ha, 24 h): C (A percentage control of from 40 to 59 is indicated by the letter C)
percentage control ([2]; 100 g/ha, 48 h): C (A percentage control of from 40 to 59 is indicated by the letter C)
percentage control ([2]; 200 g/ha, 24 h): D (A percentage control of from 20 to 39 is indicated by the letter D)
percentage control ([2]; 200 g/ha, 48 h): D (A percentage control of from 20 to 39 is indicated by the letter D)
percentage control ([2]; 400 g/ha, 24 h): D (A percentage control of from 20 to 39 is indicated by the letter D)
percentage control ([2]; 400 g/ha, 48 h): D (A percentage control of from 20 to 39 is indicated by the letter D)
pest or weed control at 0.00625 % strength [3, 4]: 1 to 19%
pest or weed control at 0.0125 % strength [3, 4]: 1 to 19%
pest or weed control at 0.025 % strength [3, 4]: 1 to 19%
pest or weed control at 0.05 % strength [3, 4]: 1 to 19%
pest or weed control at 0.1 % strength [3, 4]: 1 to 19%
pest or weed control at 0.00625 % strength [3, 5]: 1 to 19%
pest or weed control at 0.0125 % strength [3, 5]: 1 to 19%
pest or weed control at 0.025 % strength [3, 5]: 1 to 19%
pest or weed control at 0.05 % strength [3, 5]: 1 to 19%
pest or weed control at 0.1 % strength [3, 5]: 20 to 39%

CC(=O)N=S(C)(=O)C(C)c1ccc(C(F)(F)F)nc1 (stereo not drawn) [Compound 12, N-[Methyl-oxo-[1-[6-(trifluoromethyl)-3-pyridyl]ethyl]-λ^6-sulfanylidene]acetamide]
percentage control ([1]; 12.5 g/ha, 24 h): E (A percentage control of from 1 to 19 is indicated by the letter E)
percentage control ([1]; 12.5 g/ha, 48 h): D (A percentage control of from 20 to 39 is indicated by the letter D)
percentage control ([1]; 25 g/ha, 24 h): E (A percentage control of from 1 to 19 is indicated by the letter E)
percentage control ([1]; 25 g/ha, 48 h): D (A percentage control of from 20 to 39 is indicated by the letter D)
percentage control ([1]; 50 g/ha, 24 h): E (A percentage control of from 1 to 19 is indicated by the letter E)
percentage control ([1]; 50 g/ha, 48 h): C (A percentage control of from 40 to 59 is indicated by the letter C)
percentage control ([1]; 100 g/ha, 24 h): E (A percentage control of from 1 to 19 is indicated by the letter E)
percentage control ([1]; 100 g/ha, 48 h): D (A percentage control of from 20 to 39 is indicated by the letter D)
percentage control ([1]; 200 g/ha, 24 h): E (A percentage control of from 1 to 19 is indicated by the letter E)
percentage control ([1]; 200 g/ha, 48 h): D (A percentage control of from 20 to 39 is indicated by the letter D)
pest or weed control at 0.1 % strength [1, 4]: 20 to 39%
pest or weed control at 0.1 % strength [1, 5]: 40 to 59%
percentage control ([2]; 12.5 g/ha, 24 h): D (A percentage control of from 20 to 39 is indicated by the letter D)
percentage control ([2]; 12.5 g/ha, 48 h): D (A percentage control of from 20 to 39 is indicated by the letter D)
percentage control ([2]; 25 g/ha, 24 h): D (A percentage control of from 20 to 39 is indicated by the letter D)
percentage control ([2]; 25 g/ha, 48 h): D (A percentage control of from 20 to 39 is indicated by the letter D)
percentage control ([2]; 50 g/ha, 24 h): C (A percentage control of from 40 to 59 is indicated by the letter C)
percentage control ([2]; 50 g/ha, 48 h): C (A percentage control of from 40 to 59 is indicated by the letter C)
percentage control ([2]; 100 g/ha, 24 h): B (A percentage control of from 60 to 79 is indicated by the letter B)
percentage control ([2]; 100 g/ha, 48 h): B (A percentage control of from 60 to 79 is indicated by the letter B)
percentage control ([2]; 200 g/ha, 24 h): B (A percentage control of from 60 to 79 is indicated by the letter B)
percentage control ([2]; 200 g/ha, 48 h): A (A percentage control of from 80 to 100 is indicated by the letter A)
activity against spider mites compared with the reference compound ([2]; versus flupyradifurone or sulfoxaflor respectively, tables 1 and 3): more active than the reference compound
pest or weed control at 0.1 % strength [3, 4]: 1 to 19%
pest or weed control at 0.00625 % strength [3, 5]: 1 to 19%
pest or weed control at 0.0125 % strength [3, 5]: 1 to 19%
pest or weed control at 0.025 % strength [3, 5]: 1 to 19%
pest or weed control at 0.05 % strength [3, 5]: 1 to 19%
pest or weed control at 0.1 % strength [3, 5]: 1 to 19%
